Experimental data from patent US10077261B2, “Imidazolin-5-one derivative useful as FASN inhibitors for the treatment of cancer” (Janssen Pharmaceutica NV, priority 2012, dated 2018).

Target: T1, hFASN enzyme (full length) (Homo sapiens, UniProt P49327)
T1 construct: 10 μL hFASN enzyme (full length, 300 ng, purified in house); made in house
Test: Fatty Acid Synthase (FASN) inhibition scintillation proximity assay
Type: biochemical
Conditions: for inhibition at 10 µM: read-out: Human FASN % inhibition @ 10 μM, 10 μM test compound; for IC50: read-out: Human FASN pIC50 (converted)
Description: In this assay, inhibition of FASN activity is measured using ^3H-acetyl-CoA and malonyl-CoA as substrates. ^3H-Acetyl CoA is converted to ^3H-palmitate through a series of reactions by the FASN protein, which contains 7 functional domains and carries out 7 enzymatic reactions to ultimately produce ^3H-palmitate. The assay principle is based upon the fact that ^3H-acetyl-CoA is hydrophilic and the end product, ^3H-palmitate is hydrophobic.
10 μL assay buffer (100 mM KH2PO4 pH 7.5, 1 mM DTT) (20 μL in blanks) was added to a 384-well white optiplate plate (Perkin Elmer). 0.9 μL test compound (at concentrations of 30 μM, 10 μM, 3 μM, 1 μM, 0.30 μM, 0.10 μM, 0.03 μM and 0.01 μM)/DMSO and 10 μL hFASN enzyme (full length, 300 ng, purified in house) or 10 μL assay buffer was added to the wells. […] The reaction was stopped by adding 20 μL Streptavidin coupled imaging beads (25 mg/ml). After incubation for 30 minutes at room temperature in the dark, the 384 well plate was centrifuged at 1500 rpm for 3 minutes and was measured after at least 24 hrs by the LEADseeker™, measuring emission using a 610±20 nm pass filter.
where mLC and mHC were the means of the low control wells and high control wells on the plate, after manual exclusion of outliers. A plot of Controlmin versus test compound concentration was fitted to a 4-parameter logistic curve using a non-linear least squares regression method.

T1 sequence (P49327 whole entry): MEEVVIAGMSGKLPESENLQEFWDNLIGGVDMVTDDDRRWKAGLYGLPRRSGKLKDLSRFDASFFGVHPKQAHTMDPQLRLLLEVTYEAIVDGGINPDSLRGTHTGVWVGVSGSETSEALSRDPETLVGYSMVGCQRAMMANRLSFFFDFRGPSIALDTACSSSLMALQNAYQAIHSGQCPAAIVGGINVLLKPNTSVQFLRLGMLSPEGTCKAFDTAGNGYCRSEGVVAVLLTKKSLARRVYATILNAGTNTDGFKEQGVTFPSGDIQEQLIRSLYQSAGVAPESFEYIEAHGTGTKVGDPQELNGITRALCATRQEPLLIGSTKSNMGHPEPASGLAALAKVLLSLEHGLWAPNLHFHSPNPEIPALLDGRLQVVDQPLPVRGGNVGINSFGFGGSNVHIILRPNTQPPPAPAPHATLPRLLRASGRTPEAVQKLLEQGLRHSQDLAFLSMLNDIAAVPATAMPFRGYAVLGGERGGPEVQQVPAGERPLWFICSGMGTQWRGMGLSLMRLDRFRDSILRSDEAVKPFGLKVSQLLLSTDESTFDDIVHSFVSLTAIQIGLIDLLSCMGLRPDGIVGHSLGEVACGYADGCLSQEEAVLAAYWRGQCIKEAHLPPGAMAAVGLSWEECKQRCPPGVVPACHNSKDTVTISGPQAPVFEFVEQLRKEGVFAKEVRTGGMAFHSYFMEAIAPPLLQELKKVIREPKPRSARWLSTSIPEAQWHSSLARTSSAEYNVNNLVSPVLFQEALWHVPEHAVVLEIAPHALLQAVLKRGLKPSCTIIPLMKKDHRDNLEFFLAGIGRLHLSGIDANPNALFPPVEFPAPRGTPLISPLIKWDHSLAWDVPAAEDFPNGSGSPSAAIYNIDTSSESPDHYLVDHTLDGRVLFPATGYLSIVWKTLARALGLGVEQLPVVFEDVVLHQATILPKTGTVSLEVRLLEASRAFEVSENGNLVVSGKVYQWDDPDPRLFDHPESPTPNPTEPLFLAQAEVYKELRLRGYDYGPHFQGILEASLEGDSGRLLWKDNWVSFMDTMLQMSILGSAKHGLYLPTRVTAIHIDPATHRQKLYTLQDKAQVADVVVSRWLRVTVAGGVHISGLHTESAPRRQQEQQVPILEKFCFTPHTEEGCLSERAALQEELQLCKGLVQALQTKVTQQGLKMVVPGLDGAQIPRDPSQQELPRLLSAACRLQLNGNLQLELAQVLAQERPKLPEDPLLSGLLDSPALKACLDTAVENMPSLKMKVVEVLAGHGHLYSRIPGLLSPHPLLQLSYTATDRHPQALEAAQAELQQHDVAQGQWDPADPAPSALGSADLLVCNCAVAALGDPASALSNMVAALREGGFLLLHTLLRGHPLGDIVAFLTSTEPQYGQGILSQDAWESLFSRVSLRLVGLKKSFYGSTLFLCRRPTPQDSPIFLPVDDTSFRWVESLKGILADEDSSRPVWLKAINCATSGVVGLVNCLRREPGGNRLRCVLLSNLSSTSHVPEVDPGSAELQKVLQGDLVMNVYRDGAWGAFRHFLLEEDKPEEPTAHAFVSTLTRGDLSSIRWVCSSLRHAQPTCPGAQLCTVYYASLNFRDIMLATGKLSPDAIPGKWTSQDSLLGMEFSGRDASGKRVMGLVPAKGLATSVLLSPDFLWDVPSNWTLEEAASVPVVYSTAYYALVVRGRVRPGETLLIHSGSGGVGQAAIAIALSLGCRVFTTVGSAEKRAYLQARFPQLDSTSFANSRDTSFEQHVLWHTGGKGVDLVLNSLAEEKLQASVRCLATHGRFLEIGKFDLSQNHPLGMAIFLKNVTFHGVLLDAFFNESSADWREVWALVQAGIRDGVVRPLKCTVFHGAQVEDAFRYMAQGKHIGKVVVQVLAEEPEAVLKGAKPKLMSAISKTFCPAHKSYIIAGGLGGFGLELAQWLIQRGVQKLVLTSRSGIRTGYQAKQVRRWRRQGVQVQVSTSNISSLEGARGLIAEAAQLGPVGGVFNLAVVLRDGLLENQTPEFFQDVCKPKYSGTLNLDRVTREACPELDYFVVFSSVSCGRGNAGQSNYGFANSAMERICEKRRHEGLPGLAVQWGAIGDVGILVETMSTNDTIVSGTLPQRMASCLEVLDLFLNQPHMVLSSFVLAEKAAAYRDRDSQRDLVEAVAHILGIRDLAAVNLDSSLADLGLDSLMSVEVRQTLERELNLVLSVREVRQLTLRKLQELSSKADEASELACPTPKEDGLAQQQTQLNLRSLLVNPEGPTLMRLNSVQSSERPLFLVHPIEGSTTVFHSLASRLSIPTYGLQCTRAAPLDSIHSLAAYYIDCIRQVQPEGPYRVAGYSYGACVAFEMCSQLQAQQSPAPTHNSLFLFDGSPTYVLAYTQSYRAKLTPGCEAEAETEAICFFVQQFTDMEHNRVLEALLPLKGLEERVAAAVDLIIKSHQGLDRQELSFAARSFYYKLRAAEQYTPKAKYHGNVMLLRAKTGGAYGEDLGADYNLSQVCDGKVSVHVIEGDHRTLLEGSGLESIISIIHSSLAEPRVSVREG

| SMILES | inhibition at 10 µM | IC50 |
| --- | --- | --- |
| N#Cc1ccc(-c2ccc(C3=NC4(CC4)C(=O)N3CC3CCN(C(=O)C4CC4)CC3)cc2)cc1 [compound 7, 4′-(6-{[1-(Cyclopropylcarbonyl)piperidin-4-yl]methyl}-7-oxo-4,6-diazaspiro[2.4]hept-4-en-5-yl)biphenyl-4-carbonitrile] | 33.7% | – |
| Cn1nccc1-c1ccc(C2=NC3(CC3)C(=O)N2CC2CCN(C(=O)C3CC3)CC2)cc1 [compound 8, 6-{[1-(Cyclopropylcarbonyl)piperidin-4-yl]methyl}-5-[4-(1-methyl-1H-pyrazol-5-yl)phenyl]-4,6-diazaspiro[2.4]hept-4-en-7-one] | 5.1% | > 10 µM |
| COC(=O)N1CCC2(CC1)N=C(c1ccc(-c3ccc4occc4c3)cc1)N(CC1CN(C(=O)C3CC3)C1)C2=O [compound 16, Methyl 2-[4-(1-benzofuran-5-yl)phenyl]-3-{[1-(cyclopropylcarbonyl)azetidin-3-yl]methyl}-4-oxo-1,3,8-triazaspiro[4.5]dec-1-ene-8-carboxylate] | 72.5% | 1.38 µM |
| Cn1ncc2ccc(-c3ccc(C4=NC5(CC5)C(=O)N4CC4CCN(C(=O)C5CC5)CC4)cc3)cc21 [compound 24, 6-{[1-(Cyclopropylcarbonyl)piperidin-4-yl]methyl}-5-[4-(1-methyl-1H-indazol-6-yl)phenyl]-4,6-diazaspiro[2.4]hept-4-en-7-one] | 76.4% | 1.86 µM |
| O=C(C1CC1)N1CCC(CN2C(=O)C3(CC3)N=C2c2ccc(-c3ccc4ocnc4c3)cc2)CC1 [compound 37, 5-[4-(1,3-Benzoxazol-5-yl)phenyl]-6-{[1-(cyclopropylcarbonyl)piperidin-4-yl]methyl}-4,6-diazaspiro[2.4]hept-4-en-7-one] | 28.6% | > 10 µM |
| Cn1nccc1-c1ccc(C2=NC3(CC3)C(=O)N2CC2CN(C(=O)C3CC3)C2)cc1 [compound 43, 6-{[1-(Cyclopropylcarbonyl)azetidin-3-yl]methyl}-5-[4-(1-methyl-1H-pyrazol-5-yl)phenyl]-4,6-diazaspiro[2.4]hept-4-en-7-one] | 45.4% | ~10 µM |
| O=C(C1CC1)N1CC(CN2C(=O)C3(CC3)N=C2c2ccc(-c3ccc(O)cc3)cc2)C1 [compound 50, 6-{[1-(Cyclopropylcarbonyl)azetidin-3-yl]methyl}-5-(4′-hydroxybiphenyl-4-yl)-4,6-diazaspiro[2.4]hept-4-en-7-one] | 64.8% | 3.47 µM |
| Nc1cc(-c2ccc(C3=NC4(CC4)C(=O)N3CC3CN(C(=O)C4CC4)C3)cc2)ccc1O [compound 53, 5-(3′-Amino-4′-hydroxybiphenyl-4-yl)-6-{[1-(cyclopropylcarbonyl)azetidin-3-yl]methyl}-4,6-diazaspiro[2.4]hept-4-en-7-one] | 78.6% | 1.95 µM |
| O=CNc1cc(-c2ccc(C3=NC4(CC4)C(=O)N3CC3CN(C(=O)C4CC4)C3)cc2)ccc1O [compound 54, N-[4′-(6-{[-(Cyclopropylcarbonyl)azetidin-3-yl]methyl}-7-oxo-4,6-diazaspiro[2.4]hept-4-en-5-yl)-4-hydroxybiphenyl-3-yl]formamide] | 64.7% | 4.68 µM |
| O=C(C1CC1)N1CCC(CN2C(=O)C3(CC3)N=C2c2ccc(-c3ccc(-c4ccncc4)cc3)cc2)CC1 [compound 61, 6-{[1-(Cyclopropylcarbonyl)piperidin-4-yl]methyl}-5-(4′-pyridin-4-ylbiphenyl-4-yl)-4,6-diazaspiro[2.4]hept-4-en-7-one] | 63.2% | 3.98 µM |
| Cn1nccc1-c1ccc(-c2ccc(C3=NC4(CC4)C(=O)N3CC3CCN(C(=O)C4CC4)CC3)cc2)cc1 [compound 62, 6-{[1-(Cyclopropylcarbonyl)piperidin-4-yl]methyl}-5-[4′-(1-methyl-1H-pyrazol-5-yl)biphenyl-4-yl]-4,6-diazaspiro[2.4]hept-4-en-7-one] | 29.3% | > 10 µM |

More lines, now with the values ahead:

| inhibition at 10 µM | IC50 | SMILES |
| --- | --- | --- |
| 44.3% | > 10 µM | O=C(C1CC1)N1CC[C@@H](CN2C(=O)C3(CCCC3)N=C2c2ccc(-c3ccncc3)cc2)C1 [compound 3, 3-{[(3R)-1-(Cyclopropylcarbonyl)pyrrolidin-3-yl]methyl}-2-(4-pyridin-4-ylphenyl)-1,3-diazaspiro[4.4]non-1-en-4-one] |
| 74.6% | 2.14 µM | O=C(C1CC1)N1CC[C@@H](CN2C(=O)C3(CCCC3)N=C2c2ccc(-c3cccnc3)cc2)C1 [compound 5, 3-{[(3R)-1-(Cyclopropylcarbonyl)pyrrolidin-3-yl]methyl}-2-(4-pyridin-3-ylphenyl)-1,3-diazaspiro[4.4]non-1-en-4-one] |
| 61.6% | 7.24 µM | O=C(C1CC1)N1CCC(CN2C(=O)C3(CC3)N=C2c2ccc(-c3cccnc3)cc2)CC1 [compound 6, 6-{[1-(Cyclopropylcarbonyl)piperidin-4-yl]methyl}-5-(4-pyridin-3-ylphenyl)-4,6-diazaspiro[2.4]hept-4-en-7-one] |
| 11.4% | > 10 µM | Cn1cc(-c2ccc(C3=NC4(CC4)C(=O)N3CC3CCN(C(=O)C4CC4)CC3)cc2)cn1 [compound 9, 6-{[1-(Cyclopropylcarbonyl)piperidin-4-yl]methyl}-5-[4-(1-methyl-1H-pyrazol-4-yl)phenyl]-4,6-diazaspiro[2.4]hept-4-en-7-one] |
| 29.7% | > 10 µM | Cn1cc(-c2ccc(C3=NC4(CCCC4)C(=O)N3C[C@@H]3CCN(C(=O)C4CC4)C3)cc2)cn1 [compound 13, 3-{[(3R)-1-(Cyclopropylcarbonyl)pyrrolidin-3-yl]methyl}-2-[4-(1-methyl-1H-pyrazol-4-yl)phenyl]-1,3-diazaspiro[4.4]non-1-en-4-one] |
| 42.7% | > 10 µM | O=C(C1CC1)N1CC[C@@H](CN2C(=O)C3(CCCC3)N=C2c2ccc(-c3ccccn3)cc2)C1 [compound 18, 3-{[(3R)-1-(Cyclopropylcarbonyl)pyrrolidin-3-yl]methyl}-2-(4-pyridin-2-ylphenyl)-1,3-diazaspiro[4.4]non-1-en-4-one] |
| 85% | 1.07 µM | O=C(C1CC1)N1CC[C@@H](CN2C(=O)C3(CCCC3)N=C2c2ccc(-c3ccnc4ccccc34)cc2)C1 [compound 22, 3-{[(3R)-1-(Cyclopropylcarbonyl)pyrrolidin-0 3-yl]methyl}-2-(4-quyinolin-4-ylphenyl)-1,3-diazaspiro[4.4]non-1-en-4-one] |
| 64.4% | ~4.9 µM | O=C(C1CC1)N1CCC(CN2C(=O)C3(CC3)N=C2c2ccc(-c3ccc4ccncc4c3)cc2)CC1 [compound 25, 6-{[1-(Cyclopropylcarbonyl)piperidin-4-yl]methyl}-5-(4-isoquinolin-7-ylphenyl)-4,6-diazaspiro[2.4]hept-4-en-7-one] |
| 6.8% | > 10 µM | O=C(C1CC1)N1CCC(CN2C(=O)C3(CC3)N=C2c2ccc(-c3ccncc3)cc2)CC1 [compound 32, 6-{[1-(Cyclopropylcarbonyl)piperidin-4-yl]methyl}-5-(4-pyridin-4-ylphenyl)-4,6-diazaspiro[2.4]hept-4-en-7-one] |
| 23.5% | > 10 µM | Cn1cc(-c2ccc(C3=NC4(CC4)C(=O)N3CC3CN(C(=O)C4CC4)C3)cc2)cn1 [compound 42, 6-{[1-(Cyclopropylcarbonyl)azetidin-3-yl]methyl}-5-[4-(1-methyl-1H-pyrazol-4-yl)phenyl]-4,6-diazaspiro[2.4]hept-4-en-7-one] |
| -0.97% | > 10 µM | CN1CCN(c2ccc(-c3ccc(C4=NC5(CCCC5)C(=O)N4C[C@@H]4CCN(C(=O)C5CC5)C4)cc3)cn2)CC1 [compound 44, 3-{[(3R)-1-(Cyclopropylcarbonyl)pyrrolidin-3-yl]methyl}-2-{4-[6-(4-methylpiperazin-1-yl)pyridin-3-yl]phenyl}-1,3-diazaspiro[4.4]non-1-en-4-one] |
| 32.7% | > 10 µM | O=C(C1CC1)N1CCC(CN2C(=O)C3(CC3)N=C2c2ccc(-c3ccc(O)cc3)cc2)CC1 [compound 55, 6-{[1-(Cyclopropylcarbonyl)piperidin-4-yl]methyl}-5-(4′-hydroxybiphenyl-4-yl)-4,6-diazaspiro[2.4]hept-4-en-7-one] |
| 65.6% | 4.79 µM | N#Cc1cccc(-c2ccc(C3=NC4(CCCC4)C(=O)N3C[C@@H]3CCN(C(=O)C4CC4)C3)cc2)c1 [compound 83, 4′-(3-{[(3R)-1-(Cyclopropylcarbonyl)pyrrolidin-3-yl]methyl}-4-oxo-1,3-diazaspiro[4.4]non-1-en-2-yl)biphenyl-3-carbonitrile] |
| 89.2% | 1 µM | CS(=O)(=O)Nc1cccc(-c2ccc(C3=NC4(CCCC4)C(=O)N3C[C@@H]3CCN(C(=O)C4CC4)C3)cc2)c1 [compound 84, N-[4′-(3-{(3R)-1-(Cyclopropylcarbonyl)pyrrolidin-3-yl]methyl}-4-oxo-1,3-diazaspiro[4.4non-1-en-2-yl)biphenyl-3-yl]methanesulfonamide] |
